Test results from publication PMC4672351, “Drug-Drug Interaction Potentials of Tyrosine Kinase Inhibitors via Inhibition of UDP-Glucuronosyltransferases” (Scientific Reports, 2015).
Several values for one entry are separate records, joined by “and”; a condition that tells them apart may be missing. Equal entries are not always repeated. Entries after “also recorded” stand apart in the source; their conditions may differ. Where two headings read alike, the source gives them in different places.

Tests used:
UGT1A9 [1] = molecular target: T1, UGT1A9 (Homo sapiens, UniProt O60656)
T1 sequence (O60656 26-530): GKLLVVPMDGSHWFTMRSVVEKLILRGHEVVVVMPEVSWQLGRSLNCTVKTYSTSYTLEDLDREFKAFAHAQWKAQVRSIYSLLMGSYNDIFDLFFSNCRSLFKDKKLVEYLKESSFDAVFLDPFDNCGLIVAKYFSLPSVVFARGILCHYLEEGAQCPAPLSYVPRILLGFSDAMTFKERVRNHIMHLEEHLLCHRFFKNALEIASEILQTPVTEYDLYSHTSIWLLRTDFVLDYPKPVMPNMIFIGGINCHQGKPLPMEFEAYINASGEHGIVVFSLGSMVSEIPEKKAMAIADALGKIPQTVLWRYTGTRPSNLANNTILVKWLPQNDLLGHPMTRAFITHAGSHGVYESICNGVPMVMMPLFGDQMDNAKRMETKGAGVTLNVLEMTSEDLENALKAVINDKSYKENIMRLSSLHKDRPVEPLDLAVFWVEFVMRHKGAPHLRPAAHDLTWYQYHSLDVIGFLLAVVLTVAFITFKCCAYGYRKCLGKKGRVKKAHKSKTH

UGT1A9 [2] = molecular target: T1, UGT1A9; assay: biochemical
UGT1A1 [3] = molecular target: T2, UGT1A1 (Homo sapiens, UniProt P22309); assay: Inhibition of 4-MU glucuronidation by recombinant UGT1A1; settings: for activity at 120 min, 100 µM: human, recombinant UGT1A1, pH 7.4, probe 4-MU
T2 sequence (P22309 26-533): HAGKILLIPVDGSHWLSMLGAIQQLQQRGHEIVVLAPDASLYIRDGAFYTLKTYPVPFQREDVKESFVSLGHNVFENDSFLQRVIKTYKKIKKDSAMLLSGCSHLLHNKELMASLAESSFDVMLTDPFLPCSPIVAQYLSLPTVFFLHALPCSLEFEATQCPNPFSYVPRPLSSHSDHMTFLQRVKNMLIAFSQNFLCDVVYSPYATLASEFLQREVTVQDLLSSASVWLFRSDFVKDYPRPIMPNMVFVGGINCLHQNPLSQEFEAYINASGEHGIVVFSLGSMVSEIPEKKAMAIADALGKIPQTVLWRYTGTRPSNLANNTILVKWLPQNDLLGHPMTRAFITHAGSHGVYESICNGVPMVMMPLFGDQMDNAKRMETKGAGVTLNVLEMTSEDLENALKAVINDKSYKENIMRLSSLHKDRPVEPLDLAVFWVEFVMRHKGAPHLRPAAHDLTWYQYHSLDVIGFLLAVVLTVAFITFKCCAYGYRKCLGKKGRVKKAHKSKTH

UGT1A3 = molecular target: T3, UGT1A3 (Homo sapiens, UniProt P35503); assay: Inhibition of 4-MU glucuronidation by recombinant UGT1A3; settings: recombinant UGT1A3, pH 7.4, probe 4-MU
T3 sequence (P35503 29-534): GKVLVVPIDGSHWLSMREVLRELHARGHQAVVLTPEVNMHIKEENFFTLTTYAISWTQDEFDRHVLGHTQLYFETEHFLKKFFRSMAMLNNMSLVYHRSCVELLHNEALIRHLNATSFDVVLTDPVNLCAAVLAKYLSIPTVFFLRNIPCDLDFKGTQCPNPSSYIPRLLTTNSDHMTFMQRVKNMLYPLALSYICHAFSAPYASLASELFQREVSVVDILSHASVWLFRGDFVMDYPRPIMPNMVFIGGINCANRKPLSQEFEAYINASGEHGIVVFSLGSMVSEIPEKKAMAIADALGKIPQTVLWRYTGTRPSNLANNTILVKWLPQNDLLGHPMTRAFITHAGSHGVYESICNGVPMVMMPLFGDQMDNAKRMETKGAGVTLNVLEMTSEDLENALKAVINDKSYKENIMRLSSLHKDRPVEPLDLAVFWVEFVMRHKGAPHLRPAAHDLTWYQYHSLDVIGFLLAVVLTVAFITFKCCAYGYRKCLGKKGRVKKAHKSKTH

UGT1A7 [4] = molecular target: T4, UGT1A7 (Homo sapiens, UniProt Q9HAW7); assay: Inhibition of 4-MU glucuronidation by recombinant UGT1A7; settings: for activity at 30 min, 100 µM: human, recombinant UGT1A7, pH 7.4, probe 4-MU
T4 sequence (Q9HAW7 26-530): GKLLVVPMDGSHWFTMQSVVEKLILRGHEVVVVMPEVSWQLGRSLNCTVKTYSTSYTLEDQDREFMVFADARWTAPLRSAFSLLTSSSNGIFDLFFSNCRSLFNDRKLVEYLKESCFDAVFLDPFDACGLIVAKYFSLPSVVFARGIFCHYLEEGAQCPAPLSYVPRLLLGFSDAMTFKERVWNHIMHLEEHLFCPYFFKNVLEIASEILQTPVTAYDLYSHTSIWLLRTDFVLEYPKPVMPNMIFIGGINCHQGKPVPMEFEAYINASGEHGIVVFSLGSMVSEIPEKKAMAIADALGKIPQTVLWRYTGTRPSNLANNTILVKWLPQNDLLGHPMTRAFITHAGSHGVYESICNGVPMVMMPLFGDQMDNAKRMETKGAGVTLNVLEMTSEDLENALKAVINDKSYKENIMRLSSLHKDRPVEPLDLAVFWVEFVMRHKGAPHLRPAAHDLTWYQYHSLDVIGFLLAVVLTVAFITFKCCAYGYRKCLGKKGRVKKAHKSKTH

UGT1A7 [5] = molecular target: T4, UGT1A7; assay: Prediction of DDI risk (AUCi/AUC) from in vitro data, UGT1A7 substrates; parameters: purchased BD Gentest (Woburn, MA); host or cells: baculovirus-infected insect cells
UGT1A1 [6] = molecular target: T2, UGT1A1; settings: SN-38 substrate
Procedure: SN-38 glucuronidation activity was determined with a slight modification of a previously published method[13].

[7] = clinical study; ref [16]; cited from earlier work

| Structure (SMILES) | Predicted AUCi/AUC ratio of UGT1A9 substrates (UGT1A9 [1]; fm is 1) | IC50 (UGT1A9 [2]) | activity at 120 min, 100 µM (UGT1A1 [3]) | activity at 75 min, 100 µM (UGT1A3) | IC50 (UGT1A7 [4]) | activity at 30 min, 100 µM (UGT1A7 [4]) | Predicted AUCi/AUC ratio of UGT1A7 substrates (UGT1A7 [5]; fm is 1) | inhibition type, UGT1A1 (UGT1A1 [6]) | Increase in the AUC of SN-38 on co-administration with irinotecan [7] | inhibition type, UGT1A1 (UGT1A1 [3]; 4-MU substrate) | inhibition type, UGT1A7 (UGT1A7 [4]; 4-MU substrate) | Predicted increase in the AUC of substrate by UGT1A7 inhibition (UGT1A7 [5]; fm not given, Imax,u used) | Predicted increase in the AUC of substrate by UGT1A9 inhibition (UGT1A9 [1]; fm not given) | Ki (UGT1A9 [2]) |
| --- | --- | --- | --- | --- | --- | --- | --- | --- | --- | --- | --- | --- | --- | --- |
| CNC(=O)c1ccccc1Sc1ccc2c(/C=C/c3ccccn3)n[nH]c2c1 [Axitinib, axitinib] | ~1 | 3.6 ± 0.7 µM | 56.7 ± 3.4% | 47.8 ± 12.8% | 3.3 ± 0.7 µM | 25 ± 2.5% | ~1 | – | – | – | – | – | – | – |
| CS(=O)(=O)CCNCc1ccc(-c2ccc3ncnc(Nc4ccc(OCc5cccc(F)c5)c(Cl)c4)c3c2)o1 [Lapatinib, lapatinib] | – | – | 30.8 ± 11% | 96.5 ± 7.5% | – | 37.7 ± 9.3% | – | non-competitive | 41% and ~ 40% | competitive | non-competitive; also recorded: noncompetitive | ~1% | – | – |
| COc1cc2c(Nc3ccc(Br)cc3F)ncnc2cc1OCC1CCN(C)CC1 [Vandetanib, vandetanib] | – | 5 ± 0.4 µM | 48.9 ± 4.9% | 104 ± 2.1% | 38.9 ± 4.3 µM | 22.7 ± 2.7% | – | – | – | – | – | – | about 2% | 9 ± 1.2 µM |
